Experimental findings from publication PMC4745082, “A Novel PET Imaging Probe for the Detection and Monitoring of Translocator Protein 18 kDa Expression in Pathological Disorders” (Scientific Reports, 2016) are described below.

Data set [1] has as its system human glioblastoma U87-MG xenografts. Also on record: species or system mice. The note with it: mouse, in vivo. Here is the method:
Another in vivo test of [^18F]CB251 was performed in U87-MG-bearing mice using a microPET scanner (Fig. 6). Tumour cells were engrafted on the left thigh of Balb/c nude mice. [^18F]CB251 was administered intravenously after the tumour volume reached approximately 364.5 ± 32.2 mm^3 and a dynamic PET scan was performed. […] In particular, [^18F]CB251 provided a tumour accumulation (1.96 ± 0.11%ID/g at 1 h post injection) and a visible image of the tumour in summed PET images.
U87-MG cells (ATCC) were cultured in Dulbecco’s modified Eagle’s medium supplemented with 4 mM L-glutamine, 4,500 mg/L glucose, 1 mM sodium pyruvate, […] sodium bicarbonate, 10% FBS and antibiotic-antimycotic (Gibco, Grand Island, NY, USA) at 37 °C in a humidified atmosphere of 5% CO2. U87-MG cells were cultured for 2–3 days without changing the medium and were harvested with trypsin-EDTA in PBS. Male Balb/c nu/nu mice, obtained at 6–7 weeks of age (Orient Bio Inc., Seongnam, Korea), were subcutaneously injected in the right shoulder with 5 × 10^6 U87-MG cells suspended in 100 μL of 100 mM PBS (pH 7.4). Animal protocols were approved by the Seoul National University Bundang Hospital Animal Care and Use Committee and the methods were carried out in accordance with the approved guidelines. We also performed calliper measurements of the longest perpendicular tumour diameters.
Five LPS-induced neuroinflammation rats (219.2 ± 14.1 g) were used for brain PET imaging at 4 days post-LPS injection. Before the scan, the rats were anesthetized with 2% isoflurane in a 7:3 mixture of N2/O2. PET imaging of the rat brain was performed in a dedicated small animal PET/CT (NanoPET/CT, Bioscan, Inc., U.S.A.) with a 10-cm axial field-of-view (FOV) and a 12-cm transaxial FOV. […] Regional uptake of radioactivity was decay-corrected to the injection time and was expressed as the standardized uptake value (SUV), which was normalized to the injected radioactivity and animal body weight. […]

The target of another data set is TSPO (Rattus norvegicus, UniProt P16257). Nature of the data set: microPET in LPS-induced neuroinflammation rat model. The data set is classed as in vivo. Also on record: from tissue; host or cells: Living rat brain (ipsilateral and contralateral striatum), LPS-injected Sprague-Dawley rats. Here is the method:
Male Sprague-Dawley rats weighing 200–250 g were used for the brain inflammation model and neuroinflammation was induced using lipopolysaccharide (LPS; Sigma-Aldrich, St. Louis, MO, U.S.A.) as previously described. In all rats used for sequential PET scans, microglia activation between the ipsilateral and contralateral areas was determined by CD68 immunohistochemical staining.
Five LPS-induced neuroinflammation rats (219.2 ± 14.1 g) were used for brain PET imaging at 4 days post-LPS injection. Before the scan, the rats were anesthetized with 2% isoflurane in a 7:3 mixture of N2/O2. PET imaging of the rat brain was performed in a dedicated small animal PET/CT (NanoPET/CT, Bioscan, Inc., U.S.A.) with a 10-cm axial field-of-view (FOV) and a 12-cm transaxial FOV. […] To determine the TSPO selectivity and TSPO specificity of the PET images, flumazenil (5 mg/kg intravenously) was administered at 15 min post [^18F]CB251 injection via jugular catheter. Subsequently, PBR28 (5 mg/kg intravenously) was injected 30 min later via jugular catheter in the same LPS-induced neuroinflammation rat model. Three human glioblastoma U87-MG-bearing mice were used for TSPO-rich cancer PET imaging. PET scans of the mice, anesthetized with 2% isoflurane, were performed with a 9.3-cm axial, 8.4-cm trans-axial FOV scanner. At the end of each study, the list-mode data were sorted into a dynamic scan consisting of 54 frames for 90 min. The acquired images were reconstructed by the 3-D Adjoints Monte Carlo method, which included scatter and random corrections. A region of interest (ROI) with a 2-mm radius was delineated in the ipsilateral lesioned striatum by the intensely visualized region in the summed image of all the frames. Regional uptake of radioactivity was decay-corrected to the injection time and was expressed as the standardized uptake value (SUV), which was normalized to the injected radioactivity and animal body weight. Analysis of the PET images was performed using PMOD software v.3.1 (PMOD Technologies Ltd., Zurich, Switzerland). The time activity curve (TAC) representing the variation in radioligand concentration according to the time-course was estimated for the ipsilateral striatum.

Molecules are shown by their SMILES. “Also recorded” adds a separate entry of the source.

TSPO, sequence (P16257 whole entry): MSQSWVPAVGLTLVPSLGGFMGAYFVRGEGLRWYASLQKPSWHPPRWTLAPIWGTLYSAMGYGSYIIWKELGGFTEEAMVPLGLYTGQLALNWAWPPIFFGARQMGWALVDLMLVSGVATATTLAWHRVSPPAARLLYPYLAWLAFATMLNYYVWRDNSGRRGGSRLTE

Consider `CCCN(CCC)C(=O)Cc1c(-c2ccc(OCC[18F])cc2)nc2c(Cl)cc(Cl)cn12` [[^18F]CB251, 2-(2-(4-(2-[^18F]fluoroethoxy)phenyl)-6,8-dichloroimidazo[1,2-a]pyridin-3-yl)-N,N-dipropylacetamide], for which the tumour uptake in data set [1] (male, Balb/c nu/nu, 1 h) stood at 1.96 ± 0.11 %ID/g. In data set [1], the “bladder and muscle uptake” value is listed as “low”; the kidney uptake entry is “high”. Also, at TSPO (30 min post injection), the “uptake ratio between the ipsilateral area and the contralateral area” value was found to be 2.35 times. Further, the “uptake of [18F]CB251 in the ipsilateral area after PBR28 injection” value on TSPO (displacement, PBR28 5 mg/kg intravenously 30 min after flumazenil) is listed as “decreased significantly; also recorded: significantly decreased”. Moreover, the “uptake of [18F]CB251 in the ipsilateral region after flumazenil” value at TSPO (displacement, flumazenil 5 mg/kg intravenously at 15 min post injection) was “did not prevent the uptake”. In addition, the “binding potential of the specifically bound radioligand relative to the non-displaceable radioligand in tissue (BPND)” value at TSPO (ipsilateral striatum, contralateral striatum as reference, Logan plot with reference tissue input) worked out at 1.83 ± 0.18. Moreover, on TSPO (summed microPET images), the “uptake in the skull” value is given as “no significant uptake”.
